Measured values as given in patent publication US20070049564A1 (Wyeth, priority 2005, published 2007).
In brackets after ≈: the same amount, converted by molar mass. Like-named read-outs stand apart in the source and are kept apart here.

How the values were obtained:
E. coli GC 2236 = assay: MIC, broth microdilution; settings: Escherichia coli
E. coli GC 2231 = assay: MIC, broth microdilution; settings: Escherichia coli
E. coli GC 2232 = assay: MIC, broth microdilution; settings: Escherichia coli
E. coli GC 2233 = assay: MIC, broth microdilution; settings: Escherichia coli
E. coli GC 2234 = assay: MIC, broth microdilution; settings: Escherichia coli
E. coli GC 2270 = assay: MIC, broth microdilution; settings: Escherichia coli
E. coli GC 2271 = assay: MIC, broth microdilution; settings: Escherichia coli
E. coli GC 3226 = assay: MIC, broth microdilution; settings: Escherichia coli
E. coli GC 2203 = assay: MIC, broth microdilution; settings: Escherichia coli
P. aeruginosa GC 2214 = assay: MIC, broth microdilution; settings: Pseudomonas aeruginosa
S. aureus GC 6466 = assay: MIC, broth microdilution; settings: Staphylococcus aureus
S. aureus GC 2216 = assay: MIC, broth microdilution; settings: Staphylococcus aureus
S. aureus GC 6335 = assay: MIC, broth microdilution; settings: Staphylococcus aureus
S. aureus GC 6469 = assay: MIC, broth microdilution; settings: Staphylococcus aureus
E. faecalis GC 2265 = assay: MIC, broth microdilution; settings: Enterococcus faecalis
E. faecium GC 4556 = assay: MIC, broth microdilution; settings: Enterococcus faecium
E. faecium GC 2243 = assay: MIC, broth microdilution; settings: Enterococcus faecium
S. pyogenes GC 4563 = assay: MIC, broth microdilution; settings: Streptococcus pyogenes
E. coli = assay: Range of MIC for E. coli strains; settings: Escherichia coli
Staph. = assay: Range of MIC for Staph. strains, including MRSA; settings: Staphylococcus aureus, MRSA

MIC (E. coli GC 2236; GC2236, read-out: MINIMAL INHIBITORY CONCENTRATION MIC, pre-incubated in Mouse Serum): 2 µg/mL (≈ 2.65 µM) | MIC (E. coli GC 2236; GC2236, read-out: MINIMAL INHIBITORY CONCENTRATION MIC, pre-incubated in Water): 64 µg/mL (≈ 84.7 µM) | MIC (E. coli GC 2231; GC2231, read-out: MINIMAL INHIBITORY CONCENTRATION MIC, pre-incubated in Mouse Serum): 2 µg/mL (≈ 2.65 µM) | MIC (E. coli GC 2231; GC2231, read-out: MINIMAL INHIBITORY CONCENTRATION MIC, pre-incubated in Water): > 64 µg/mL | MIC (E. coli GC 2232; GC2232, read-out: MINIMAL INHIBITORY CONCENTRATION MIC, pre-incubated in Mouse Serum): 1 µg/mL (≈ 1.32 µM) | MIC (E. coli GC 2232; GC2232, read-out: MINIMAL INHIBITORY CONCENTRATION MIC, pre-incubated in Water): > 64 µg/mL | MIC (E. coli GC 2233; GC2233, read-out: MINIMAL INHIBITORY CONCENTRATION MIC, pre-incubated in Mouse Serum): 2 µg/mL (≈ 2.65 µM) | MIC (E. coli GC 2233; GC2233, read-out: MINIMAL INHIBITORY CONCENTRATION MIC, pre-incubated in Water): 32 µg/mL (≈ 42.3 µM) | MIC (E. coli GC 2234; GC2234, read-out: MINIMAL INHIBITORY CONCENTRATION MIC, pre-incubated in Mouse Serum): 1 µg/mL (≈ 1.32 µM) | MIC (E. coli GC 2234; GC2234, read-out: MINIMAL INHIBITORY CONCENTRATION MIC, pre-incubated in Water): > 64 µg/mL | MIC (E. coli GC 2270; GC2270, read-out: MINIMAL INHIBITORY CONCENTRATION MIC, pre-incubated in Mouse Serum): 1 µg/mL (≈ 1.32 µM) | MIC (E. coli GC 2270; GC2270, read-out: MINIMAL INHIBITORY CONCENTRATION MIC, pre-incubated in Water): > 64 µg/mL | MIC (E. coli GC 2271; GC2271, read-out: MINIMAL INHIBITORY CONCENTRATION MIC, pre-incubated in Mouse Serum): 1 µg/mL (≈ 1.32 µM) | MIC (E. coli GC 2271; GC2271, read-out: MINIMAL INHIBITORY CONCENTRATION MIC, pre-incubated in Water): 32 µg/mL (≈ 42.3 µM) | MIC (E. coli GC 3226; GC3226, read-out: MINIMAL INHIBITORY CONCENTRATION MIC, pre-incubated in Mouse Serum): 2 µg/mL (≈ 2.65 µM) | MIC (E. coli GC 3226; GC3226, read-out: MINIMAL INHIBITORY CONCENTRATION MIC, pre-incubated in Water): > 64 µg/mL | MIC (E. coli GC 2203; GC2203, read-out: MINIMAL INHIBITORY CONCENTRATION MIC, pre-incubated in Mouse Serum): 1 µg/mL (≈ 1.32 µM) | MIC (E. coli GC 2203; GC2203, read-out: MINIMAL INHIBITORY CONCENTRATION MIC, pre-incubated in Water): > 64 µg/mL | MIC (P. aeruginosa GC 2214; GC2214, read-out: MINIMAL INHIBITORY CONCENTRATION MIC, pre-incubated in Mouse Serum): 32 µg/mL (≈ 42.3 µM) | MIC (P. aeruginosa GC 2214; GC2214, read-out: MINIMAL INHIBITORY CONCENTRATION MIC, pre-incubated in Water): > 64 µg/mL | MIC (S. aureus GC 6466; GC6466, read-out: MINIMAL INHIBITORY CONCENTRATION MIC, pre-incubated in Mouse Serum): 0.25 µg/mL (≈ 0.331 µM) | MIC (S. aureus GC 6466; GC6466, read-out: MINIMAL INHIBITORY CONCENTRATION MIC, pre-incubated in Water): 0.25 µg/mL (≈ 0.331 µM) | MIC (S. aureus GC 2216; GC2216, read-out: MINIMAL INHIBITORY CONCENTRATION MIC, pre-incubated in Mouse Serum): 0.5 µg/mL (≈ 0.662 µM) | MIC (S. aureus GC 2216; GC2216, read-out: MINIMAL INHIBITORY CONCENTRATION MIC, pre-incubated in Water): 1 µg/mL (≈ 1.32 µM) | MIC (S. aureus GC 6335; GC6335, read-out: MINIMAL INHIBITORY CONCENTRATION MIC, pre-incubated in Mouse Serum): 0.5 µg/mL (≈ 0.662 µM) | MIC (S. aureus GC 6335; GC6335, read-out: MINIMAL INHIBITORY CONCENTRATION MIC, pre-incubated in Water): 0.5 µg/mL (≈ 0.662 µM) | MIC (S. aureus GC 6469; GC6469, read-out: MINIMAL INHIBITORY CONCENTRATION MIC, pre-incubated in Mouse Serum): 2 µg/mL (≈ 2.65 µM) | MIC (S. aureus GC 6469; GC6469, read-out: MINIMAL INHIBITORY CONCENTRATION MIC, pre-incubated in Water): 4 µg/mL (≈ 5.29 µM) | MIC (E. faecalis GC 2265; GC2265, read-out: MINIMAL INHIBITORY CONCENTRATION MIC, pre-incubated in Mouse Serum): 2 µg/mL (≈ 2.65 µM) | MIC (E. faecalis GC 2265; GC2265, read-out: MINIMAL INHIBITORY CONCENTRATION MIC, pre-incubated in Water): 2 µg/mL (≈ 2.65 µM) | MIC (E. faecium GC 4556; GC4556, read-out: MINIMAL INHIBITORY CONCENTRATION MIC, pre-incubated in Mouse Serum): 1 µg/mL (≈ 1.32 µM) | MIC (E. faecium GC 4556; GC4556, read-out: MINIMAL INHIBITORY CONCENTRATION MIC, pre-incubated in Water): 4 µg/mL (≈ 5.29 µM) | MIC (E. faecium GC 2243; GC2243, read-out: MINIMAL INHIBITORY CONCENTRATION MIC, pre-incubated in Mouse Serum): 0.5 µg/mL (≈ 0.662 µM) | MIC (E. faecium GC 2243; GC2243, read-out: MINIMAL INHIBITORY CONCENTRATION MIC, pre-incubated in Water): 1 µg/mL (≈ 1.32 µM) | MIC (S. pyogenes GC 4563; GC4563, read-out: MINIMAL INHIBITORY CONCENTRATION MIC, pre-incubated in Mouse Serum): 0.12 µg/mL (≈ 0.159 µM) | MIC (S. pyogenes GC 4563; GC4563, read-out: MINIMAL INHIBITORY CONCENTRATION MIC, pre-incubated in Water): 0.25 µg/mL (≈ 0.331 µM) | MIC (E. coli; 20 h, read-out: Range of MIC, E. coli (Mouse Serum)): 1 to 2 µg/mL (≈ 1.32 to 2.65 µM) | MIC (E. coli; read-out: Range of MIC, E. coli (mouse serum)): 1 to 2 µg/mL (≈ 1.32 to 2.65 µM) | MIC (Staph.; read-out: Range of MIC, Staph (Mouse Serum)): 0.25 to 2 µg/mL (≈ 0.331 to 2.65 µM) | MIC (Staph.; read-out: Range of MIC, Staph (Water)): 0.5 to 4 µg/mL (≈ 0.662 to 5.29 µM) | MIC (Staph.; read-out: Range of MIC, Staph. (mouse serum)): 0.25 to 2 µg/mL (≈ 0.331 to 2.65 µM) | MIC (Staph.; read-out: Range of MIC, Staph. (water)): 0.5 to 4 µg/mL (≈ 0.662 to 5.29 µM)
Compound: CCCN(CC(=O)Nc1cc(N(C)C)c2c(c1O)C(=O)C1=C(O)[C@]3(O)C(=O)C(C(N)=O)=C(O)[C@@H](N(C)C)[C@@H]3C[C@@H]1C2)C(=O)OCOC(=O)c1cccs1 [Example 25, ({[(2-{[(5aR,6aS,7S,10aS)-9-(aminocarbonyl)-4,7-bis(dimethylamino)-1,8,10a,11-tetrahydroxy-10,12-dioxo-5,5a,6,6a,7,10,10a,12-octahydrotetracen-2-yl]amino}-2-oxoethyl)(propyl)amino]carbonyl}oxy)methyl thiophene-2-carboxylate]
